Experimental data taken from US6166205A, “2-Aryl-4-(1-[4-heteroaryl]piperazin-1-yl)methylimidazoles: dopamine . D.sub4 receptor subtype ligands” (Neurogen Corporation, priority 1999, dated 2000).
Counter-ions that a name gives are not always drawn.

Assays:
D4 receptor = experiment: dopamine D4 receptor binding assay (3H-YM 09151-2); set-up: species or system African Green monkey; conditions: 0.5 nM 3H-YM 09151-2; COS cells with recombinantly produced D4 receptors; Table 2: rat striatal homogenates
Experimental: (§1) Assays For D2 And D4 Receptor Binding Activity
(§2) Pellets of COS cells containing recombinantly produced D2 or D4 receptors from African Green monkey are used for the assays. A sample is homogenized in 100 volumes (w/vol) of 0.05 M Tris HCl buffer at 4° C. and pH 7.4 and then centrifuged at 30,000×g and resuspended and rehomogenized. The sample is again centrifuged at 30,000×g and the final tissue sample is frozen until use. The tissue is resuspended 1:20 (wt/vol) in 0.05 M Tris HCl buffer containing 100 mM NaCl.
(§3) Incubations are carried out at […] and contain 0.4 ml of tissue sample, 0.5 nM ^3 H-YM 09151-2(Nemonapride, cis-5-Chloro-2-methoxy-4-(methylamino)-N-(2-methyl-2-(phenylmethyl)-3-pyrrolidinyl)benzamide) and the compound of interest in a total incubation of 1.0 ml. Nonspecific binding is defined as that binding found in the presence of […] spiperone; without further additions, nonspecific binding is less than 20% of total binding. The binding characteristics of representative compounds of this invention for the D2 and D4 receptor subtypes are shown in Table 2 for rat striatal homogenates.

D2 receptor = D2 receptor (Chlorocebus aethiops, UniProt P52702); experiment: dopamine D2 receptor binding assay (3H-YM 09151-2); set-up: species or system African Green monkey; conditions: 0.5 nM 3H-YM 09151-2; COS cells with recombinantly produced D2 receptors; Table 2: rat striatal homogenates
Sequence of D2 receptor (P52702 whole entry): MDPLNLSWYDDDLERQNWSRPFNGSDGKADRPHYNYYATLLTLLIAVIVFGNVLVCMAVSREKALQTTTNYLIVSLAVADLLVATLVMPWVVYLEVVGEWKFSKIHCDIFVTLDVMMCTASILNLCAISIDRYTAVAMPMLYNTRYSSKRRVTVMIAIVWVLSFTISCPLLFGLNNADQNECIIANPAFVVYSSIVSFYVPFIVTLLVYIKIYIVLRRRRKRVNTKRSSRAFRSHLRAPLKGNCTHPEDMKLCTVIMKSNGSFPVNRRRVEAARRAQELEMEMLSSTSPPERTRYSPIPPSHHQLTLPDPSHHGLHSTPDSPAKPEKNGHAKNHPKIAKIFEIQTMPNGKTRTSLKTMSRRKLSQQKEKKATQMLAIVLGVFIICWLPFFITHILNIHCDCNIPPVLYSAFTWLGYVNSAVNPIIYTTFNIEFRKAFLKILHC
Experimental: as §1, §2, §3

SMILES	Ki (D4 receptor) [nM]	Ki (D2 receptor) [nM]
c1ccc(-c2ncc(CN3CCN(c4ccc5c(n4)CCCC5)CC3)[nH]2)cc1 [Compound 1a, (1-[(2-phenylimidazol-5-yl)methyl]-4-(2-5,6,7,8-tetrahydroquinolyl)piperazine hydrobromide]	14	> 1000
c1ccc(-c2ncc(CN3CCN(c4ncc5ccccc5n4)CC3)[nH]2)cc1 [Compound 4a, 2-{4-[(2-phenylimidazol-5-yl)methyl]piperazinyl}quinazoline]	–	2680
c1ccc(-c2ncc(CN3CCN(c4cnc5ccccc5n4)CC3)[nH]2)cc1 [Compound 5, 2-{4-[(2-phenylimidazol-5-yl)methyl]piperazinyl}quinoxaline]	–	2050

Next, values leading:

Ki (D4 receptor) [nM]	Ki (D2 receptor) [nM]	SMILES
9	784	c1ccc(-c2ncc(CN3CCN(c4ccc5ccccc5n4)CC3)[nH]2)cc1 [Compound 2a, 1-[(2-phenylimidazol-5-yl)methyl]-4-(2-quinolyl)piperazine hydrobromide]
17	978	Fc1ccccc1-c1ncc(CN2CCN(c3ccc4ccccc4n3)CC2)[nH]1 [Compound 3a, 1-{[2-(2-fluorophenyl)imidazol-5-yl]methyl}-4-(2-quinolyl)piperazine oxalate]
